# Source: article PMC7253423, “Quassinoid analogs with enhanced efficacy for treatment of hematologic malignancies target the PI3Kγ isoform” (Communications Biology, 2020)
# Where “and” joins values, the source holds several entries; their conditions need not be identical. Equal values may be shown once.
# Experiments:
# [1] = system: Raji cells; assay: Cell viability assay (CellTiter-Glo luminescence); assay type: cell-based, human; conditions: Homo sapiens, analogs, 72 h, Fig. 5c, read-out: IC50
# Protocol: (§1) 5000 cells as indicated were cultured in 96-well plate with 100 μl of media. […] After treatment, the cells were incubated with 100 μl buffer for 10 min at room temperature following the instructions of CellTiter-Glo kit (Promega, Madison, WI). Luminescence was detected using a multi-mode reader Cytation 5 (BioTek, Winooski, VT). […] Two independent experiments done in duplicates were performed.
# [2] = Body weight of xenograft mice; assay type: in vivo, NOD/SCID mice; conditions: individual mice, Fig S3i, in g (unit assumed)
# Protocol: (§2) Six-week-old male NOD.CB17-Prkdc^scid/J (NOD/SCID) mice (Jackson Labs, Bar Harbor, ME, USA) were used as the human-in-mouse xeno-transplantation model. MOLM14 cells (1 × 10^7 cells) were injected into the subcutaneous space on the left flank of the mice. […] Body weight and tumor size were monitored before every injection. After treatment for 2 weeks, the mice were euthanized by CO2 inhalation and the tumors were carefully excised. The tumor volume (mm^3) was measured and calculated using the formula (a × b × b)/2 (a, the largest diameter of two measurements; b, the smallest diameter of two measurements).
# [3] = system: hematologic malignancies derived cell lines; assay: Cell viability assay, panel of hematologic malignancy derived cell lines; assay type: cell-based, human; conditions: 100 nM, 72 h, lymphoma, leukemia and multiple myeloma cell lines (13 cell lines for analogs)
# Protocol: 5000 cells as indicated were cultured in 96-well plate with 100 μl of media. On the next day, Brusatol or associated analogs were added once to the cells without media change. After treatment, the cells were incubated with 100 μl buffer for 10 min at room temperature following the instructions of CellTiter-Glo kit (Promega, Madison, WI). Luminescence was detected using a multi-mode reader Cytation 5 (BioTek, Winooski, VT). […] Two independent experiments done in duplicates were performed.
# [4] = system: PBMC; assay: Cytotoxicity, cell viability assay in normal cells; assay type: cell-based, human; conditions: Fig 5c
# Text: Human peripheral blood mononuclear cells (PBMCs), normal T-cells and B-cells were provided by the University of Pennsylvania Human Immunology Core (HIC), and Patient-derived xenografts (PDXs) were obtained from Fox Chase Cancer Center (FCCC). These samples were from different unidentified and healthy donors with written, informed consent. All the procedures were approved by the Institutional Review Board (IRB) and conducted according to the declarations of Helsinki protocols.
# as §1
# [5] = system: MOLM14 xenografts; assay: In vivo tumorigenic assay using xenografts, tumor size; parameters: species or system NOD/SCID mice; conditions: MOLM14 xenograft
# Protocol: as §2
smiles,measurement,setting,value
COC(=O)C12OCC34C(CC5C(C)=C(OC(=O)C(N)Cc6ccccc6)C(=O)CC5(C)C3C(O)C1O)OC(=O)C(OC(=O)C=C(C)C)C24 (stereo not drawn) [#14],IC50,[1],0.0393 µM
same,Body weight,[2]; 0d,25.66 and 26.32 and 25.88 and 25.26 and 25.69
same,Body weight,[2]; 2d,26.84 and 26.83 and 25.73
same,Body weight,[2]; 4d,30.22 and 27.96
same,Body weight,[2]; 6d,31.1 and 27.6
same,Body weight,[2]; 8d,31.54 and 29.03 and 29.06 and 28.16 and 27.82 and 27.45
same,Body weight,[2]; 10d,32.14 and 29.64 and 29.88 and 28.65 and 28.04
same,Body weight,[2]; 12d,33.33 and 31.09 and 31.73 and 30.06 and 30.08
same,inhibition of cell viability in panel of cell lines,[3],significantly inhibit
same,"Cell viability, raw luminescence reading",[4]; Con. 0.01 μM,16702 and 18584
same,"Cell viability, raw luminescence reading",[4]; Con. 0.039 μM,14138 and 13170
same,"Cell viability, raw luminescence reading",[4]; Con. 0.156 μM,9796 and 9988
same,"Cell viability, raw luminescence reading",[4]; Con. 0.625 μM,7942 and 8235
same,"Cell viability, raw luminescence reading",[4]; Con. 10 μM,10547 and 15443
same,"tumor size (Fig 5d&5e), individual mice",[5]; 0d,146.154 and 92.4556 and 61.5288 and 118.617 and 111.079 and 97.6091
same,"tumor size (Fig 5d&5e), individual mice",[5]; 2d,155.286 and 83.3599 and 78.5598 and 123.615 and 132.099 and 148.619
same,"tumor size (Fig 5d&5e), individual mice",[5]; 4d,205.624 and 120.823 and 83.03 and 205.911 and 121.618 and 141.386
same,"tumor size (Fig 5d&5e), individual mice",[5]; 6d,215.948 and 214.154 and 405.903 and 288.793 and 65.298 and 81.0923
same,"tumor size (Fig 5d&5e), individual mice",[5]; 8d,654.828 and 372.84 and 268.332 and 549.466 and 314.977 and 266.348
same,"tumor size (Fig 5d&5e), individual mice",[5]; 10d,1094.41 and 794.074 and 511.007 and 817.839 and 517.393 and 583.109
same,"tumor size (Fig 5d&5e), individual mice",[5]; 12d,1848.1 and 1147.5 and 978.929 and 1531.82 and 970.42 and 1008.11
